# Patent US7781580B2, “Stilbene derivatives as new cancer therapeutic agents” (Virginia Commonwealth University, priority 2007, dated 2010)
# Where a name gives a salt, the structure may show the parent alone.
# Tests used:
# [1] = tested on: UCI101 ovarian cancer cells; assay: Alamar Blue cell growth inhibition, UCI101; format: cell-based; conditions: for relative potency / activity: UCI101, 48 hours
# Description: Cell growth was measured by AlamarBlue™ staining and the percentage of cell growth inhibition was calculated and compared with the control cells that were treated with 0.1% DMSO, the vehicles for the stilbene compounds.
# Cells were treated with the tested drug for 2 days before analysis of cell growth by Alamar Blue™ staining. Cells treated with 0.1% DMSO were used as control and set as 100%.
# (§1) (a) In vitro sensitivity of UCI101 cells toward three potential stilbene prodrugs, 5a-c, was tested in 96-well plates using Alamar Blue™ assays to determine cell growth inhibition. […] (b) 5b induces cell cycle change and apoptosis in UCI101 cells. Cells were incubated with 5b at 1, 3, 10 μM for 16 hours followed by PI staining and flow cytometry analysis. A subG0/1 population, representing apoptotic cells, appeared along with a decrease of the G1/G2 ratio after cells were treated with 3 μM 5b. Higher concentration (10 μM) of 5b completely killed cells, as was the case with stilbene 4a at […]. (c) Cells treated with stilbene 4a and 5b were stained with phospho-histone 3B, a mitotic marker. The positive signals of phospho-histone 3B were shown in green and nuclei were stained with DAPI in blue. […] (d) In vivo efficacy of 5b compared with stilbene 4a. Nude mice were injected with UCI101 ovarian cancer cells and treated with 7 doses of 5b,c or stilbene 4a every 2-3 days. Tumor volume was calculated and plotted against days.
# (§2) Various cancer cell lines were grown in 96-well plates for drug sensitivity assays. Once cells achieved 50% confluence, the incubation media was changed to the same cell growth media with different concentrations of the tested compounds or vehicle alone. Cells were then incubated for 48 hours before the cell growth inhibition study. To determine the degree of cell growth inhibition, 1/10 volume of Alamar Blue™ solution was added to each well and optical density (OD) at 570 and 600 nm was determined. The percentage of growth inhibition was calculated according to the manufacturer's formula as follows: The percentage of growth is [(117216×A570)−(80586×A600)]/[(117216×A^o570)−(80586×A^o600)]×100. In this formula, A570 is the absorbance of the treated samples at 570 nm; A600 is the absorbance of the treated samples at 600 nm; A^o570 is the absorbance of the […] samples at 570 nm; and A^o600 is the absorbance of the untreated samples at 600 nm. The two constants, 117216 and 80586, are the extinction coefficients of Alamar Blue™ at 570 and 600 nm respectively. Each concentration was repeated in triplicate to minimize the error.
# (§3) We first tested the cytotoxic effect of various stilbene derivatives for their in vitro efficacy of suppressing tumor cell proliferation. Cells were first plated in 96-well plates at 50% confluence and treated with 0, 0.01, 0.03, 0.1, 0.3, 1.0, 3.0, 10 μM concentrations of stilbene derivatives for 48 hours in triplicate. Alamar Blue™ reagent was added into each well at 1/10 volume and incubated for 2 hours before quantification of the absorbance at 570 and 600 nm.
# [2] = tested on: UCI101 ovarian cancer cells (xenograft); assay: UCI101 xenograft in nude mice; format: in vivo
# Description: as §1
# We next tested whether 5b could be converted into stilbene 4a in circulation. […] Blood was collected at 20, 60 and 240 min after injection for spot check of stilbene 4a level in serum. […] The in vivo efficacy of 5b and 5c was compared to stilbene 4a in a pilot study using 5 mice in each group.
# [3] = tested on: SNU423 hepatocellular carcinoma cells; assay: Alamar Blue cell growth inhibition, SNU423; format: cell-based
# Description: Cell growth was measured by Alamar Blue™ staining and the OD absorbance at 570 and 600 nm was determined by a microplate reader. The percentage of cell growth inhibition was calculated and compared with the control cells that were treated with 0.1% DMSO, the vehicle for the stilbene compounds.
# as §2, §3
# [4] = tested on: SKOV3 ovarian cancer cells; assay: Alamar Blue cell growth inhibition, SKOV3; format: cell-based
# Description: Cells were incubated with various concentrations of the compounds for 48 hours. Cell growth was measured by Alamar Blue™ staining and the percentage of cell growth inhibition was calculated and compared with the control cells that were treated with 0.1% DMSO, the vehicle for the stilbene compounds.
# as §2
# [5] = tested on: HL60 leukemic cells (xenograft); assay: HL60 xenograft model in SCID mice; format: in vivo; conditions: 5 mg/kg/day for 4 days
# Description: FIG. 20. Effect of stilbene 4a in vivo. (a) Induction of cell death in vivo by stilbene 4a. Tumor was harvested at 24 hours after treatment for TUNEL assay. (b) Histological sections of tumor. Tumor harvested at 24 hours after injection of stilbene 4a was analyzed by H & E staining. The area with lighter color is the necrotic region. (c) Tumor growth suppression. SCID mice were injected subcutaneously with 5×10^6 HL60 cells at each flank. Once the diameter of tumor reached 5 mm in diameter in majority of mice, mice were treated with 5 daily injection of stilbene 4a. Tumor volume was calculated by the long and short axis of tumor and plotted against days. Each group contains 5 mice.
# HL60 leukemic cells were injected subcutaneously into ICR-scid mice (Taconic Inc.) on flank. After tumor becomes visible after 12 days, Mice will be treated with stilbene 4a by intravenous injection after dissolved in 10% DMSO in normal saline. For acute effect study, mice were sacrificed 24 hours after injection and tumor and bone marrow were harvested for histological staining and flow cytometry analysis. For long term effect study, stilbenes were injected intravenously from tail veins at 2 or 10 mg/kg for 5 consecutive days. Negative control mice were treated with 10% DMSO in normal saline and positive control mice were treated with Ara-C at 5 mg/kg. Tumor volume was measured twice a week for 4 weeks by the long and short axes of tumor. Volume was calculated by the formula ab^2/2, in which “a” represents the long axis and “b” the short axis of tumor. Mice were euthanized if the calculated tumor reached 10% of the body weight.
# Tubulin (>99% pure) = assay: tubulin polymerization assay (OD 340 nm); format: biochemical; conditions: OD340 nm; nocodazole and paclitaxel 10 μM
# Description: FIG. 3a-d. Stilbenes inhibit tubulin polymerization. (a) Effect of stilbene 4a. Pure tubulin was incubated with various concentrations of stilbene 4a, 10 μM nocodazole, and 10 μM paclitaxel in the polymerization buffer. The OD at 340 nm was monitored every minute by SpectraMAX 250 and plotted against time. (b) Effect of stilbene 4c. (c) Comparison of same concentrations of stilbenes 4a, 4a trans, 4c and 4c trans with control. […] Tubulin was incubated with [^3H]-colchicine and various concentrations of different stilbenes for 20 min. Tubulin was then separated from the unbound [^3H]-colchicine by Microcon-30 and washed three times with PBS. The radioactivity of the tubulin was counted. […] All experiments were done in triplicates.
# The tubulin polymerization assay kit was purchased from Cytoskeleton (Denver, Colo.). Tubulin (>99% pure) was mixed with general tubulin buffer (GTB, 80 mM PIPES pH 6.9, 2 mM MgCl2, 0.5 mM EGTA, and 1 mM GTP) in a 96-well plate at 37° C. Absorbance at 340 nm was measured every 1 min for 60 min by SpectraMAX 250 (Molecular Devices, Sunnyville, Calif.). Analysis of the results was performed by SoftMAX Pro version 1.2.0 from the same company.
SMILES,relative potency / activity [1],melting point [°C],other results
"COc1cc(/C=C\c2ccc(OC)c(NC(=O)OCCOCCOCCO)c2)cc(OC)c1 [5c, (Z)-{5-[2-(3,5-Dimethoxy-phenyl)-vinyl]-2-methoxy-phenyl}-carbamic acid-2-[2-(2-hydroxy-ethoxy)-ethoxy]-ethyl ester]",showed no activity,–,"tumor growth versus control mice ([2]; 7 doses every 2-3 days): tumor growth rate the same as that of control mice; mouse weight ([2]; mouse, in vivo): did not show any significant change"
COc1cc(/C=C\c2ccc(OC)c(N)c2)cc(OC(C)C)c1.Cl,–,120 to 122,–
"CCOc1cc(/C=C\c2ccc(OC)c(N)c2)cc(OC)c1.Cl [10b, (Z)-5-[2-(3-Ethoxy-5-methoxy-phenyl)-vinyl]-2-methoxy-phenylamine, hydrochloride]",active but less effective than stilbene 4a,127 to 131,–
"COc1ccc(/C=C\c2ccc3[nH]ccc3c2)cc1N.O=C(O)C(=O)O [14a, (Z)-5-[2-(1H-Indol-5-yl)-vinyl]-2-methoxy-phenylamine, oxalate salt]",not active,112 to 115,–
C=CCOc1cc(/C=C/c2ccc(OC)c(N)c2)cc(OC)c1.Cl,–,137 to 140,–
"C=CCOc1cc(/C=C\c2ccc(OC)c(N)c2)cc(OC)c1.Cl [10e, (Z)-5-[2-(3-Allyloxy-5-methoxy-phenyl)-vinyl]-2-methoxy-phenylamine, hydrochloride]",active but less effective than stilbene 4a,122 to 125,–
"COc1cc(/C=C\c2ccc(OC)c(N)c2)cc(OCCO)c1 (as salt: hydrochloride) [10a, (Z)-2-{3-[2-(3-Amino-4-methoxy-phenyl)-vinyl]-5-methoxy-phenoxy}-ethanol, hydrochloride]",–,157 to 159,–
"COc1cc(/C=C\c2ccc(OC)c(CN3C(=O)c4ccccc4C3=O)c2)cc(OC)c1 [3e, (Z)-2-{5-[2-(3,5-Dimethoxy-phenyl)-vinyl]-2-methoxy-benzyl}-isoindole-1,3-dione]",–,–,"effective concentration, cell growth suppression ([1]; UCI101): > 3 µM"
"COc1cc(/C=C\c2ccc(OC)c(C(=O)O)c2)cc(OC)c1 [4d, (Z)-5-[2-(3,5-Dimethoxy-phenyl)-vinyl]-2-methoxybenzoic acid.]",–,–,"effective concentration, blocking cell proliferation ([3]; SNU423, 48 hours): > 10 µM; activity ([4]; SKOV3): not active"
"Nc1ccn([C@@H]2O[C@H](CO)[C@@H](O)[C@@H]2O)c(=O)n1 [Ara-C, reference compound]",–,–,adverse effect [5]: Ara-C-induced conjunctivitis
CCOc1cc(/C=C/c2ccc(OC)c(N)c2)cc(OC)c1.Cl,–,147 to 149,–
"COc1cc(/C=C\c2ccc(OC)c(N)c2)cc(OCC(=O)O)c1 [10f, (Z)-{3-[2-(3-Amino-4-methoxy-phenyl)-vinyl]-5-methoxy-phenoxy}-acetic acid]",not active,–,–
"COc1cc2c(c(OC)c1OC)-c1ccc(OC)c(=O)cc1[C@@H](NC(C)=O)CC2 [colchicine, reference compound]",–,–,"effective / active concentration ([4]; SKOV3, 48 hours): 0.1 µM"
"COc1ccc(/C=C\c2ccc3c(ccn3C)c2)cc1N [14b, (Z)-2-Methoxy-5-[2-(1-methyl-1H-indol-5-yl)-vinyl]-phenylamine]",less potent than stilbene 4a by one log,–,–
COc1cc(/C=C/c2ccc(OC)c(N)c2)cc(OC(C)C)c1.Cl,–,134 to 136,–
"COc1cc(/C=C\c2ccc(OC)c(NC(=O)NCCN3CCOCC3)c2)cc(OC)c1 [5a, (Z)1-{5-[2-(3,5-Dimethoxy-phenyl)-vinyl]-2-methoxy-phenyl}-3-(2-morpholin-4-yl-ethyl)-urea, hydrochloride]",showed no activity,–,–
"COc1cc(/C=C\c2ccc3ccn(C)c3c2)cc(OC)c1 [13b, (Z)-6-[2-(3,5-Dimethoxy-phenyl)-vinyl]-1-methyl-1H-indole]",less potent than stilbene 4a by one log,–,–
"COC(=O)Nc1nc2ccc(C(=O)c3cccs3)cc2[nH]1 [nocodazole, reference compound]",–,–,effect on tubulin polymerization (Tubulin (>99% pure)): suppressed
"COc1cccc2c1C(=O)c1c(O)c3c(c(O)c1C2=O)C[C@@](O)(C(=O)CO)C[C@@H]3O[C@H]1C[C@H](N)[C@H](O)[C@H](C)O1 [doxorubicin, reference compound]",–,–,relative potency ([3]; SNU423): potency similar to that of 10a
